Where two headings read alike, the source gives them in different places.
How the values were obtained:
SARS-CoV-2 [1] = assay type: in vivo, human
[2] = relapsing MS patients; cited from earlier work
[3] = mouse model of RA, orally administered; cited from earlier work
[4] = mouse model of SLE, orally administered; cited from earlier work
SARS-CoV-2 [5] = system: SARS-CoV-2
Description: The clinical study NCT02975349 is a phase II, randomized, placebo-controlled trial to evaluate the safety and efficacy of evobrutinib (M2951) in subjects with relapsing multiple sclerosis (RMS). […] The study was composed of a screening period of 4 weeks, a double blinded treatment period of 48 weeks, with an optional open-label extension (OLE) period of 312 weeks, and a safety follow-up period of 4 weeks post-treatment.
Patients were randomized 1:1:1:1: to receive placebo, oral evobrutinib 25 mg once-daily (QD), 75 mg QD, 75 mg twice-daily (BID), or open-label dimethyl fumarate. Patients who received placebo during the first 24 weeks of the DBP, were switched to evobrutinib 25 mg QD until the end of the double-blind period (i.e., 48 weeks). Patients participating in the OLE after the DBP received EVO 75 mg QD and then, after a mean of 49.8 weeks, switched to EVO 75 mg BID.
For the analysis of pre-vaccination, post-vaccination and post-booster vaccination S1/S2 IgG antibody levels, plasma samples were selected according to the following criteria: • Pre-vaccination: sample taken at the last doctor's visit of the patient before the date when the first COVID-19 vaccine dose was administered • post-vaccination: sample taken at the first doctor's visit of the patient that took place at least 28 days after a complete vaccination cycle (as defined by the manufacturer) was administered (for example, in case of the mRNA COVID vaccine of VAC-OLE I, at least 28 days after the date when the second dose of the mRNA COVID vaccine was administered) • post-booster vaccination: sample taken in the first doctor's visit of the patients that took place at least 7 days after the date when the booster vaccination was administered
A total of 24 patients, fulfilling the following criteria, were included in the analysis and constituted the VAC-OLE I analysis set: • Subjects who were in the OLE and received evobrutinib 75 mg BID, and • had 2 doses of mRNA vaccine against COVID reported as concomitant medication, and • signed the Informed Consent for the vaccination analysis.
Subjects were administered the two doses of vaccine during the course of the study based on investigator's judgement. Of the 24 vaccinated patients: • 20 received the mRNA vaccine by BioNTech/Pfizer • 4 patients received the mRNA vaccine by Moderna.
SARS-CoV-2 antibody levels were determined using the LIAISON® SARS-CoV-2 S1/S2 IgG assay (DiaSorin, Inc); an indirect sandwich chemiluminescent immunoassay that qualitatively detects IgG antibodies to SARS-CoV-2. […] Briefly, magnetic particles coated with recombinant S1 and S2 SARS-CoV-2 proteins were incubated with patients' plasma samples, calibrator samples or control samples. After washing away unbound material, a mouse monoclonal anti-human IgG antibody linked to an isoluminol derivative was added. Following another incubation and wash step, the starter reagents were added triggering a flash chemiluminescence reaction. The resulting light signal, representative of the amount of bound isoluminol-antibody conjugate, was measured by a photo multiplier as relative light units (RLU) and was indicative of the presence of IgG S1/S2 antibodies to SARS-CoV-2 virus. Test results are assessed qualitatively as positive or negative. The lower limit of quantification (LLoQ) in this assay was 3.8 AU/mL. In line with FDA guidance, values below a cutoff of 15 AU/mL (i.e. about 4× above the LLoQ for the assay) were considered as a negative readout.
The primary endpoint of this study was defined as fold changes in levels of S1/S2 IgG antibodies from pre- to post-vaccination.

SARS-CoV-2 [6] = settings: MS patients, 2 to 4 weeks after second dose of mRNA COVID-19 vaccine; cited from earlier work
[7] = all participants (N=45), VAC-OLE II, evobrutinib 75 mg BID
[8] = booster subgroup (N=14), mRNA booster, VAC-OLE II
[9] = participants that received mRNA vaccines (37), VAC-OLE II
[10] = participants that received non-mRNA vaccines (8), VAC-OLE II
[11] = seronegative subgroup (N=32), VAC-OLE II
[12] = seropositive subgroup (N=13), VAC-OLE II
[13] = overall VAC-OLE I population (N=24), evobrutinib 75 mg BID
[14] = seronegative subgroup (19 patients), VAC-OLE I
[15] = seropositive subgroup (5 patients), VAC-OLE I

For `C=CC(=O)N1CCC(CNc2ncnc(N)c2-c2ccc(Oc3ccccc3)cc2)CC1` [evobrutinib, 1-[4-({[6-amino-5-(4-phenoxyphenyl)pyrimidin-4-yl]amino}methyl)piperidin-1-yl]prop-2-en-1-one], the “participants with >30-fold induction of S1/S2 IgG antibody levels” value (SARS-CoV-2 [1]; 21 of 45 participants, VAC-OLE II) was 47%, the “participants with >10-fold increase of S1/S2 IgG antibody levels” value (SARS-CoV-2 [1]; 38 of 45 participants, VAC-OLE II) was 84% and the “S1/S2 IgG antibody geometric mean post-vaccination” value (SARS-CoV-2 [1]; <8 weeks subgroup, VAC-OLE II) was 672 AU/mL. The “participants with >30-fold change in antibody levels after vaccination” value (SARS-CoV-2 [1]; >8 and ≤12 weeks subgroup (7 of 19), VAC-OLE II) was 37%, the “S1/S2 IgG antibody geometric mean post-vaccination” value (SARS-CoV-2 [1]; >8 week to ≤12 weeks subgroup, VAC-OLE II) was 166 AU/mL and the “participants with >30-fold change in antibody levels after vaccination” value (SARS-CoV-2 [1]; >12 weeks group (2/13), VAC-OLE II) was 15%. The “S1/S2 IgG antibody geometric mean post-vaccination” value (SARS-CoV-2 [1]; >12 weeks subgroup, VAC-OLE II) was 142 AU/mL, the “fold increase in anti-COVID-19 antibody levels pre- to post-vaccination” value (SARS-CoV-2 [1]; all participants (N=45), VAC-OLE II) was 45 fold and the “S1/S2 IgG antibody level after a complete vaccination cycle, geometric mean” value (SARS-CoV-2 [1]; [7]) was 237.8 AU/mL. The “S1/S2 IgG antibody level pre-vaccination, geometric mean” value (SARS-CoV-2 [1]; [7]) was 9.0 AU/mL, the “fold change in the geometric mean of S1/S2 IgG antibody” value (shortened to “fold change in the geometric mean”) (SARS-CoV-2 [1]; assessed >8 week to ≤12 weeks after complete vaccination cycle, VAC-OLE II) was 17.7 and the “fold change in the geometric mean” value (SARS-CoV-2 [1]; assessed >12 weeks after complete vaccination cycle, VAC-OLE II) was 17.8. For the same molecule, the “fold change in the geometric mean” value (SARS-CoV-2 [1]; assessed ≤8 weeks after complete vaccination cycle, VAC-OLE II) was 69.7, the “S1/S2 IgG antibody levels after booster vaccination compared to levels after the complete vaccination cycle” value (SARS-CoV-2 [1]; booster subgroup (N=14), VAC-OLE II) was “Higher” and the “geometric mean fold change from post-vaccination to post-booster” value (SARS-CoV-2 [1]; [8]) was 6.3. The “geometric mean fold change from pre-vaccination to post-booster” value (SARS-CoV-2 [1]; [8]) was 214, the “response to COVID vaccination compared with individuals not under BTK inhibitor treatment” value (SARS-CoV-2 [1]; conclusion of Example 2, comparison with published data) was “comparably to healthy individuals” and the “post-vaccination S1/S2 IgG antibody geometric mean” value (SARS-CoV-2 [1]; [9]) was 247.7 AU/mL. The “pre-vaccination S1/S2 IgG antibody geometric mean” value (SARS-CoV-2 [1]; [9]) was 8.5 AU/mL, the “post-vaccination S1/S2 IgG antibody geometric mean” value (SARS-CoV-2 [1]; [10]) was 197.1 AU/mL and the “pre-vaccination S1/S2 IgG antibody geometric mean” value (SARS-CoV-2 [1]; [10]) was 12.1 AU/mL. The “S1/S2 IgG antibody post-vaccination geometric mean level” value (SARS-CoV-2 [1]; [11]) was 133.6 AU/mL, the “S1/S2 IgG antibody values prior to vaccination (majority of participants, lower limit of quantification)” value (SARS-CoV-2 [1]; [11]) was 3.8 AU/mL and the “S1/S2 IgG antibody geometric mean level after a complete vaccination cycle” value (SARS-CoV-2 [1]; [12]) was 984.4 AU/mL. The “S1/S2 IgG antibody pre-vaccination geometric mean level” value (SARS-CoV-2 [1]; [12]) was 55.5 AU/mL, the “results in RMS phase II trials” value [2] was “positive results” and the “efficacy (reduction of disease severity and histological damage)” value [3] was “good efficacy”. For the same molecule, the “efficacy (reduction of disease severity and histological damage)” value [4] was “good efficacy”, the “S1/S2 IgG antibody level, geometric mean, after second vaccination” value (SARS-CoV-2 [5]; [13]) was 209.1 AU/mL and the “S1/S2 IgG antibody level, geometric mean, before first vaccination” value (SARS-CoV-2 [5]; [13]) was 6.7 AU/mL. The “S1/S2 IgG antibody level post-vaccination, geometric mean” value (SARS-CoV-2 [5]; sample collected >12 weeks after second vaccination, VAC-OLE I) was 74, the “S1/S2 IgG antibody level post-vaccination, geometric mean” value (SARS-CoV-2 [5]; sample collected between 8 and 12 weeks after second dose, VAC-OLE I) was 264 and the “S1/S2 IgG antibody level post-vaccination, geometric mean” value (SARS-CoV-2 [5]; sample collected less or equal to 8 weeks after second vaccination, VAC-OLE I) was 383 AU/mL. For the same molecule, the “geometric mean fold change of S1/S2 IgG antibody levels” value (SARS-CoV-2 [5]; seronegative patients, VAC-OLE I) was 36.0, the “S1/S2 IgG antibody level prior to vaccination (majority of patients, lower limit of quantification)” value (SARS-CoV-2 [5]; [14]) was “around 3.8 AU/ml” and the “S1/S2 IgG antibody level, geometric mean post-vaccination” value (SARS-CoV-2 [5]; [14]) was 155.8 AU/mL. The “geometric mean fold change of S1/S2 IgG antibody levels” value (SARS-CoV-2 [5]; seropositive patients, VAC-OLE I) was 18.0, the “S1/S2 IgG antibody level, geometric mean after the second vaccination” value (SARS-CoV-2 [5]; [15]) was 639.6 AU/mL and the “S1/S2 IgG antibody level, geometric mean pre-vaccination” value (SARS-CoV-2 [5]; [15]) was 35.5 AU/mL.
In the case of `C=CC(=O)N1CCC[C@@H](n2c(=O)n(-c3ccc(Oc4ccccc4)cc3)c3c(N)nccc32)C1` [tolebrutinib, reference compound], the “results in RMS phase II trials” value [2] is given as “positive results”.
For “ocrelizumab: B and/or T cell receptor directed antibody; a disease modifying treatment for multiple sclerosis”, the “S1/S2 IgG antibody levels” value (SARS-CoV-2 [6]) is given as “very low”.

Reference: patent US20260000669A1, “TREATMENT REGIMEN FOR AUTOIMMUNE DISEASES AND INFLAMMATORY DISEASES” (Merck Patent GmbH, priority 2022, published 2026)
